Data taken from patent US5776940A, “Phenylxanthine derivatives” (Glaxo Wellcome Inc., priority 1994, dated 1998).

Columns and labels:
[1] = system: C. parvum/LPS septic shock in mice; assay: In vivo Septic Shock model C. parvum/LPS Shock; parameters: species or system mouse (male CD-1); settings: for % Survival After 48 hr / Alive/Total at 3 hr / Alive/Total at 48 hr: schedule -2,0 hr
Method: 3) In vivo Septic Shock model C. parvum/LPS Shock
Male CD-1 mice, 25-30 g (Charles River: Raleigh, N.C.), are injected intravenously (i.v.) with 100 μg killed C. parvum (Coparvax; Burroughs Wellcome, RTP, NC). Nine or ten days later the mice are injected i.v. with 20 μg E. coli 026:B6 lipopolysaccharide (LPS; Difco Labs, Detroit, Mich.) in the presence of the analgesic butorphanol (150 μg per mouse). (E)-4-(1,3-bis(cyclohexylmethyl)-1, 2, 3, 6-tetrahydro-2, 6dioxo-9H-purin-8-yl)cinnamic acid was dissolved in ENCAPSIN (hydroxypropyl-β-cyclodextrin) for i.v. dosing before, at the same time as, and after the endotoxin. Control (untreated) animals go into shock within the first 90 min following LPS administration, and approximately 50% die within 3-5 hr. Mice are monitored for the first 7 hr and at 24 and 48 hr for survival.
(E)-4-(1,3-bis(cyclohexylmethyl)-1, 2, 3, 6-tetrahydro-2, 6-dioxo-9H-purin-8-yl) cinnamic acid was administered at 0.001 to 80 mg/kg i.v. in the Septic Shock model described above.

[2] = system: antigen-induced airway eosinophilia; assay: Inhibition of antigen-induced airway eosinophilia in the guinea pig; type: in vivo, guinea pig (male Hartley); settings: 24 h after antigen challenge
Method: 2) Compounds of the invention were assayed for inhibition of Antigen-Induced airway eosinophilia as follows:
Male Hartley guinea pigs [Crl:(HA)Br, Charles River] weighing 200-300 g were sensitized to ovalbumin (OA) by intraperitioneal (i.p.) injections (in 1 ml 0.9% saline) of 20 mg followed by 1 mg 2 or 3 days later. After four to twelve weeks, the animals were treated with the antihistamine, pyrilamine (1 mg/kg i.p), 1 hour prior to exposure (17.8 l chamber) and for 10 min to an aerosol of OA (0.5% w/v solution in 0.9% sterile saline) generated from a jet nebulizer (Devilbiss Model 40; flow rate=8.51/min). […] Twenty-four hours after antigen challenge, each animal was anesthetized with sodium pentobarbital (55-75 mg/kg i.p.), the trachea cannulated and the lungs lavaged with 4×10 ml aliquots of Hanks' Balanced Salt Solution warmed to 37° C. The aliquots were pooled in 40 ml polycarbonate centrifuge tubes, centrifuged (200 g for 10 min at 4° C.) and the cell pellet resuspended in HEPES buffered solution (2 ml). Fifty μl of the suspension were added to 10 ml of Isoton Diluent (Fisher Scientific) containing three drops of lysing agent and the cells counted with a Coulter Counter (Model ZB1). Four μl of the cell suspension were spread on a 3×1 inch glass microscope slide, allowed to dry and the cells stained with DIFF-QUIK™ (Fisher Scientific). Two slides were prepared for each animal. Differential cell counts were made (100× magnification) from a minimum of four fields on 100 cells per slide (total cells counted per animal=200), using standard morphological criteria to classic cells into eosinophils, neutrophils, lymphocytes and macrophages. The activity of the test compound was calculated by comparing the mean proportions of eosinophils in the lavage fluid of compound-treated animals with controls (vehicle-treated animals) and expressing as percent inhibition.

[3] = system: arachidonate cyclooxygenase; assay: Arachidonate metabolism: cyclooxygenase inhibition in rat pleural exudate cells; type: cell-based, rat (Harlan Sprague-Dawley male); settings: ionophore A23187, 10 μM arachidonate, 37° C., read-out: Enzymes IC50 CO
Method: (§1) Compounds of the invention were assayed for inhibiting activity in arachidonate metabolism and PAF synthesis as follows.
(§2) A) Arachidonate Metabolism
(§3) Arachidonate cyclooxygenase, 5-lipoxygenase, and thromboxane synthetase were assayed as described in White et al, Prostaglandins, Leukotrienes and Medicine, 1985; 20: p 1-9. Pleural exudate cells were harvested from Harlan Sprague-Dawley male rats (150±20 g) 3 hr after intrapleural injection of 0.5 mg carrageenan. Cell counts were obtained from pooled exudates, which were then centrifuged at 200 g (10 min, 4° C.) and resuspended at 15 million cells/ml in 0.13M NaCl, 15 mM Tris-Cl, 5 mM glucose, pH 7.4. Portions of this cell suspension (3 million cells per assay) were preincubated with and without compound being tested for 5 min at 37° C. in 50 mM Tris-Cl, 1 mM CaCl2, pH 7.4. Ionophore A23187 (3 μM) and [^14 C]arachidonate (to give 10 μM; 55 Ci/mol) were then added in a total assay volume of 400 μl, and incubation was continued for 2 min at 37° C. Blank assays were performed using sonicated cells with 0.1 mM 3-amino-1-m-trifluoromethylphenyl pyrazol-2-ine, an inhibitor of cyclooxygenase and lipoxygenase pathways. After incubation, reaction mixtures were acidified with 20 μl of 2N HCl and extracted with 4 ml diethyl ether. Ether extracts were dried under nitrogen, resuspended in ethyl acetate, and chromatographed on Whatman LK5D silica gel G plates, using ethyl acetate/isooctane/acetic acid/water (9/5/2/10; vols; top layer after 5 min shaking). Thin layer plates were exposed to Kodak SB-5 X-ray film to produce autoradiogran. [^14 C]DPM in products were obtained by scraping appropriate regions of TLC plates and counting in a scintillation spectrometer. Effects on the 5-lipoxygenase pathway were estimated by counting 5-HETE and 5,12-diHETE (LTB4). Cyclooxygenase and thromboxane synthetase inhibition were estimated by counting thromboxane B2 and prostaglandin E2 or F2 α. Selective thromboxane inhibitors will decrease thromboxane B2 and increase PGE2 and PGF2 α. Cyclooxygenase inhibitors will inhibit the formation of all three products.

[4] = biological target: T1, lyso-PAF: acetyl-CoA acetyltransferase (Rattus norvegicus, UniProt P0C1Q3); assay: Lyso-PAF: Acetyl-CoA Acetyltransferase [Synthesis of Platelet-Activating Factor (PAF)] in a lysate of rat pleural neutrophils; type: biochemical, rat (male Harlan Sprague-Dawley); settings: lysate of activated rat pleural neutrophils, pH 6.9, 37° C., 10 min; read-out: Enzymes IC50 PAF
T1 construct: measured in a lysate of rat pleural neutrophils; endogenous in cells
T1 sequence (P0C1Q3 1-544): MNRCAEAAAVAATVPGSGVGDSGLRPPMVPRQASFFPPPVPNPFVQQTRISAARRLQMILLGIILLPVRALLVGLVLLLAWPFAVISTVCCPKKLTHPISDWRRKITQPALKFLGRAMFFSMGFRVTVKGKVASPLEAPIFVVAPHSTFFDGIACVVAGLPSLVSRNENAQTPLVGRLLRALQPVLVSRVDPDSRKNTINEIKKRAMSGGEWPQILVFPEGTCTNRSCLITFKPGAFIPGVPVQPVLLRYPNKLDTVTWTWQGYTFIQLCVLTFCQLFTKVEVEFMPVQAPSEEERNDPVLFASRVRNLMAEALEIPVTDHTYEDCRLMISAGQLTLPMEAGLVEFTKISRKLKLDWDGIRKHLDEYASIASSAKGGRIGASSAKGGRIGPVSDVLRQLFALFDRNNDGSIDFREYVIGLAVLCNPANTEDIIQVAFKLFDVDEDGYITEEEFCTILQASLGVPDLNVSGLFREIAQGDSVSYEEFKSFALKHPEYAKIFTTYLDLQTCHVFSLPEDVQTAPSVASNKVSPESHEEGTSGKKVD
Method: as §1
B) Lyso-PAF: Acetyl-CoA Acetyltransferase [Synthesis of Platelet-ActivatingFactor (PAF)]
Synthesis of PAF (platelet-activating factor) was measured in a lysate of rat pleural neutrophils, as described by White and Faison, Prostaglandins,1988; 35: p939-44. Pleural exudate cells, harvested from male Harlan Sprague-Dawley rats (150±20 g) 3 hr after injection of 0.5 mg carrageenan, were centrifuged at 200 g for 10 min at 4° C., washed, and resuspended at approximately 17 million cells/mi in a buffer consisting of 50 mM potassium phosphate, 144 mM NaCl, 6 mM KCl, 5 mM glucose, 1 mM MgCl2, 1.3 mM CaCl2, pH 7.4. Resuspended cells were incubated with calcium ionophore A23187 (1 μM) for 5 min at 37° C. to activate the acetyltransferase and then centrifuged at 755 g for 2 min at 4° C. Pellets were resuspended in cold distilled water and sonicated in a 50 Hz ultrasonic bath. Portions (250 μl) of the resulting lysate were mixed with buffer, test compound, and substrates to give 36 mM Tris-Cl, pH 6.9, 12 μM lyso-PAF, and 2.3 μM [^14 C]acetyl-CoA (0.06 μCi) in a total volume of 500 μl. Blank assays contained nonactivated neutrophils and no added lyso-PAF. The compound being tested was added prior to substrates. After incubation at 37° C. for 10 min. 0.68 ml of 2N HCl and 2.53 ml of 1:1 chloroform/methanol were added to each tube to extract labeled PAF. Each tightly-covered tube was briefly sonicated in a Branson 50 Hz bath, vortexed for 20 sec, and centrifuged at 160 g for 5 min to separate solvent phases. A 0.90 ml aliquot of the lower (organic)phase was pipetted into a glass scintillation vial, dried under nitrogen using an N-EVAP apparatus (Organomation Associates), and counted using scintillation techniques.

[5] = biological target: T2, arachidonate 5-lipoxygenase (Rattus norvegicus, UniProt P12527); assay: Arachidonate metabolism: 5-lipoxygenase inhibition in rat pleural exudate cells; type: cell-based, rat (Harlan Sprague-Dawley male); settings: ionophore A23187, 10 μM arachidonate, 37° C., read-out: Enzymes IC50 5-LO
T2 construct: endogenous in cells; host or cells: pleural exudate cells of male Harlan Sprague-Dawley rats, 3 hr after intrapleural carrageenan
T2 sequence (P12527 1-673): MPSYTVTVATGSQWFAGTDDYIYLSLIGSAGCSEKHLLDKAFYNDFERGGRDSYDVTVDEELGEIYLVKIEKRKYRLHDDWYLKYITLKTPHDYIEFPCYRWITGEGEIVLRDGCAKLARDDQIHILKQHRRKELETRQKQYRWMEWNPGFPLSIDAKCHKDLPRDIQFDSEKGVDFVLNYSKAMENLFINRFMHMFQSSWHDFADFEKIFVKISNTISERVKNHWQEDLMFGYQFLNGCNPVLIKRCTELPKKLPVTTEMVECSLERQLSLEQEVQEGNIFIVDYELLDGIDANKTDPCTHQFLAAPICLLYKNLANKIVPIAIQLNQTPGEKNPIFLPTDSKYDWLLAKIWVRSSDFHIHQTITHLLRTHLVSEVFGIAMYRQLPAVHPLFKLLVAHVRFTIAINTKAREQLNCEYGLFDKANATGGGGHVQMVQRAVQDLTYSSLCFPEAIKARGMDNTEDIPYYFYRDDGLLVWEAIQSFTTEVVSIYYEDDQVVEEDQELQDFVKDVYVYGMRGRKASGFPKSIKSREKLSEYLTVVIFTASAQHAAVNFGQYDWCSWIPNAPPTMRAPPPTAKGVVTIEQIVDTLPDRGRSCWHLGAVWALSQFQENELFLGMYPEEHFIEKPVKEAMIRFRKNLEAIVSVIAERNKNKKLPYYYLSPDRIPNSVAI
Method: as §1, §2, §3

Compound: O=C(O)/C=C/c1ccc(-c2nc3c(=O)n(CC4CCCCC4)c(=O)n(CC4CCCCC4)c3[nH]2)cc1 [Example 1, (E)-4-[1,3 Bis(cyclohexylmethyl)-1,2,3,6-tetrahydro-2,6-dioxo-9H-purin-8-yl]cinnamic Acid]
- % Survival After 48 hr ([1]; 0.001 mg/kg i.v.): 13%
- Alive/Total at 3 hr ([1]; 0.001 mg/kg i.v.): 6/8
- Alive/Total at 48 hr ([1]; 0.001 mg/kg i.v.): 1/8
- % Survival After 48 hr ([1]; 0.01 mg/kg i.v.): 13%
- Alive/Total at 3 hr ([1]; 0.01 mg/kg i.v.): 7/8
- Alive/Total at 48 hr ([1]; 0.01 mg/kg i.v.): 1/8
- % Survival After 48 hr ([1]; 0.1 mg/kg i.v.): 50%
- Alive/Total at 3 hr ([1]; 0.1 mg/kg i.v.): 6/8
- Alive/Total at 48 hr ([1]; 0.1 mg/kg i.v.): 4/8
- % Survival After 48 hr ([1]; 1.0 mg/kg i.v.): 88%
- Alive/Total at 3 hr ([1]; 1.0 mg/kg i.v.): 6/8
- Alive/Total at 48 hr ([1]; 1.0 mg/kg i.v.): 7/8
- protection (decreasing mortality) ([1]; 0.001 to 80 mg/kg i.v., administered 2 hr before and at the time of LPS): greater than 50%
- % Survival After 48 hr ([1]; 5.0 mg/kg i.v.): 75%
- Alive/Total at 3 hr ([1]; 5.0 mg/kg i.v.): 7/8
- Alive/Total at 48 hr ([1]; 5.0 mg/kg i.v.): 6/8
- % Survival After 48 hr ([1]; 10 mg/kg i.v.): 75%
- Alive/Total at 3 hr ([1]; 10 mg/kg i.v.): 8/8
- Alive/Total at 48 hr ([1]; 10 mg/kg i.v.): 6/8
- % Survival After 48 hr ([1]; 20 mg/kg i.v.): 75%
- Alive/Total at 3 hr ([1]; 20 mg/kg i.v.): 8/8
- Alive/Total at 48 hr ([1]; 20 mg/kg i.v.): 6/8
- % Survival After 48 hr ([1]; 40 mg/kg i.v.): 75%
- Alive/Total at 3 hr ([1]; 40 mg/kg i.v.): 7/8
- Alive/Total at 48 hr ([1]; 40 mg/kg i.v.): 6/8
- % Survival After 48 hr ([1]; 60 mg/kg i.v.): 75%
- Alive/Total at 3 hr ([1]; 60 mg/kg i.v.): 7/8
- Alive/Total at 48 hr ([1]; 60 mg/kg i.v.): 6/8
- % Survival After 48 hr ([1]; 80 mg/kg i.v.): 63%
- Alive/Total at 3 hr ([1]; 80 mg/kg i.v.): 7/8
- Alive/Total at 48 hr ([1]; 80 mg/kg i.v.): 5/8
- Inhibition of Airway Eosinophilia (% inhibition) ([2]; dose 5 mg/kg ip): 50%
- IC50 [3]: 0.1 µM
- IC50 [4]: 2.5 µM
- IC50 [5]: 0.3 µM

Compound: O=C(O)/C=C/c1ccc(-c2nc3c(=O)n(CC4CCCC4)c(=O)n(CC4CCCC4)c3[nH]2)cc1 [Example 4, (E)-4-[1,3 Bis(cyclopentylmethyl)-1,2,3,6-tetrahydro-2,6-dioxo-9H-purin-8-yl]cinnamicAcid]
- Inhibition of Airway Eosinophilia (% inhibition) ([2]; dose 10 mg/kg ip): 46%
- IC50 [3]: 5 µM
- IC50 [4]: 15 µM
- IC50 [5]: 6 µM

Compound: O=C(O)/C=C/c1ccc(-c2nc3c(=O)n(CC4CCCCCC4)c(=O)n(CC4CCCCCC4)c3[nH]2)cc1 [Example 7, (E)-4-[1,3 Bis(cycloheptylmethyl)-1,2,3,6-tetrahydro-2,6-dioxo-9H-purin-8-yl]cinnamicAcid]
- Inhibition of Airway Eosinophilia (% inhibition) ([2]; dose 6.8 mg/kg ip): 50%
- IC50 [3]: 4 µM
- IC50 [4]: 12 µM
- IC50 [5]: 1.5 µM
